Measured values taken from PubChem BioAssay (NCI).
Where “and” joins values, the source holds several entries; their conditions need not be identical. Equal values may be shown once.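 Following 48 hours of exposure in 96-well plates, responses at five concentrations were used to interpolate endpoints linearly. Abbreviation: GI50, concentration required for 50% inhibition of growth. TGI: total growth inhibition.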

Columns and labels:
Assay in all cases: NCI tumour cell line growth inhibition, 48 h
A498 renal = tested on: A498 renal
A549 NSCLC = tested on: A549 NSCLC
CAKI-1 renal = tested on: CAKI-1 renal
CCRF-CEM leukemia = tested on: CCRF-CEM leukemia
COLO 205 colon = tested on: COLO 205 colon
DLD-1 colon = tested on: DLD-1 colon
DMS 114 small cell lung = tested on: DMS 114 small cell lung
DMS 273 small cell lung = tested on: DMS 273 small cell lung
EKVX NSCLC = tested on: EKVX NSCLC
HCC-2998 colon = tested on: HCC-2998 colon
HCT-116 colon = tested on: HCT-116 colon
HCT-15 colon = tested on: HCT-15 colon
HL-60(TB) leukemia = tested on: HL-60(TB) leukemia
HOP-18 NSCLC = tested on: HOP-18 NSCLC
HOP-62 NSCLC = tested on: HOP-62 NSCLC
HOP-92 NSCLC = tested on: HOP-92 NSCLC
HT29 colon = tested on: HT29 colon
IGROV1 ovarian = tested on: IGROV1 ovarian
K-562 leukemia = tested on: K-562 leukemia
KM12 colon = tested on: KM12 colon
KM20L2 colon = tested on: KM20L2 colon
LOX IMVI melanoma = tested on: LOX IMVI melanoma
M14 melanoma = tested on: M14 melanoma
MALME-3M melanoma = tested on: MALME-3M melanoma
MCF7 breast = tested on: MCF7 breast
MOLT-4 leukemia = tested on: MOLT-4 leukemia
NCI-H226 lung = tested on: NCI-H226 lung
NCI-H23 lung = tested on: NCI-H23 lung
NCI-H460 lung = tested on: NCI-H460 lung

Molecule `C=C1CC2CC[C@@]34C[C@@H]5O[C@@H]6C(O[C@H]7CC[C@H](CC(=O)OC8[C@@H](C)C9OC%10C[C@]%11(C[C@@H]%12O[C@@]%13(C[C@@H](C)[C@@H]%12O%11)C[C@H](C)[C@@H]%11OC%12CC(C(O)CO)OC%12C[C@@H]%11O%13)OC%10CC9O[C@H]8C[C@H]8O[C@@H](CC[C@@H]1O2)C[C@@H](C)C8=C)O[C@@H]7[C@@H]6O3)C5O4` (stereo partly drawn) has a GI50 (A498 renal) of less than 0.148 nM, a TGI (A498 renal) of 16.7 nM and a GI50 (A549 NSCLC) of less than 0.148 nM. For the same molecule, the TGI (A549 NSCLC) was greater than 1480 nM, the GI50 (CAKI-1 renal) was less than 0.148 nM and the TGI (CAKI-1 renal) was greater than 1480 nM. It also gave a GI50 (CCRF-CEM leukemia) of less than 0.148 nM, a GI50 (COLO 205 colon) of less than 0.148 nM and a GI50 (DLD-1 colon) of less than 0.148 nM. The TGI (DLD-1 colon) was greater than 1480 nM, the TGI (DMS 114 small cell lung) was 4.28 nM and 19.8 nM and the GI50 (DMS 273 small cell lung) was less than 0.148 nM. For the same molecule, the TGI (DMS 273 small cell lung) was less than 0.148 nM, the GI50 (EKVX NSCLC) was less than 0.148 nM and the TGI (EKVX NSCLC) was greater than 1480 nM. It also gave a TGI (HCC-2998 colon) of 8.65 nM, a GI50 (HCT-116 colon) of less than 0.148 nM and a TGI (HCT-116 colon) of 3.27 nM. For the same molecule, the GI50 (HCT-15 colon) was 0.233 nM, the GI50 (HL-60(TB) leukemia) was less than 0.148 nM and the TGI (HOP-18 NSCLC) was greater than 1480 nM. For the same molecule, the GI50 (HOP-62 NSCLC) was 0.174 nM, the GI50 (HOP-92 NSCLC) was less than 0.148 nM and the TGI (HOP-92 NSCLC) was greater than 1480 nM. For the same molecule, the GI50 (HT29 colon) was less than 0.148 nM, the TGI (HT29 colon) was 7.84 nM and 3.21 nM and the GI50 (IGROV1 ovarian) was less than 0.148 nM. It also gave a TGI (IGROV1 ovarian) greater than 1480 nM, a GI50 (K-562 leukemia) of less than 0.148 nM and a TGI (K-562 leukemia) greater than 1480 nM. It also gave a GI50 (KM12 colon) of less than 0.148 nM, a GI50 (KM20L2 colon) of less than 0.148 nM and a GI50 (LOX IMVI melanoma) of less than 0.148 nM. The TGI (LOX IMVI melanoma) was 394 nM, the TGI (M14 melanoma) was 6.75 nM and the TGI (MALME-3M melanoma) was 9.77 nM. It also gave a TGI (MCF7 breast) greater than 1480 nM, a GI50 (MOLT-4 leukemia) of less than 0.148 nM and a TGI (MOLT-4 leukemia) of 104 nM. For the same molecule, the GI50 (NCI-H226 lung) was less than 0.148 nM, the GI50 (NCI-H23 lung) was less than 0.148 nM and the TGI (NCI-H23 lung) was 6.8 nM and 1.98 nM. For the same molecule, the GI50 (NCI-H460 lung) was less than 0.148 nM.
